Results on two compounds are retold here after patent US20090053139A1, “Dendrimer based compositions and methods of using the same” (Regents of the University of Michigan, priority 2006, published 2009).

In one series the test system is KB cells. Briefly: Inhibition of KB cell growth (XTT assay / total cell protein). In kind it is cell-based, human. How it is done:
Cell culture and treatment.
Evaluation of dendrimer cytotoxicity. Cell growth was determined by assay of the total protein in lysates of treated cells using a bicinchoninic acid reagent (PIERCE, and by XTT assay, using a kit from Roche.
Because the binding of the conjugate to KB cells reaches maximal uptake within 1 h (Quintana et al, 2002. Pharmaceutical Research 19: 1310-1316), the effect of the G5-FI-FA-MTX on cell growth was initially tested by pre-incubation of cells with the conjugate for 1 h, followed by incubation in a drug-free medium for 5 d. […] When the cells were pre-incubated with dendrimers for 4 h, there was a modest decrease of about 10% in cell growth as determined by XTT assay. The cytotoxicity measurements were therefore done by incubation with the dendrimer for a minimum of 24 h, a pre-incubation time period shown to induce significant cytotoxicity.
Time course and dose dependent inhibition of cell growth. Previous studies have shown that MTX-induced cytotoxicity is detectable in vitro only if the medium is completely deprived of FA (See, e.g., Sobrero & Bertino, Int. J. Cell Cloning 4, 51 (1986)). The effect of the trifunctional dendrimers on cell growth was tested in cells incubated in a FA-deficient medium. Cells were treated with 300 nM conjugates (equivalent of 1500 nM MTX) or 1500 nM free MTX for 1-4 days, and cell proliferation was determined by estimation of cellular protein content. […] KB cells which express high and low FAR were incubated with 30 nM of the dendrimers for 1 hr at 37° C., rinsed, and the fluorescence of cells was determined by flow cytometric analysis (See. e.g., FIG. 21, left panel). […]
As the G5-FITC-FA-MTX preparation contained equimolar concentrations of MTX and FA, the effect of similar concentrations of free MTX and free FA on the inhibition of cell growth was determined. […] The cells were rinsed to remove the drugs and incubated with fresh medium for an additional 6 d, and total cell protein was determined. […]

Series [1] is described as follows: Toxicity of dendrimer conjugates and free methotrexate in SCID mice. In kind it is in vivo. An excerpt:
(§1) Delivery of targeted nanoparticle therapeutic.
Toxicity of dendrimer conjugates. […] No morphologic abnormalities were observed on the histopathology examination.
The remaining experimental groups had very uniform body weight fluctuations nonindicative of toxicity when compared with control groups with saline or conjugate without methotrexate.

The subject of another series is human KB xenografts. Briefly: Tumor growth and survival of SCID mice bearing s.c. human KB xenografts. In kind it is in vivo. The procedure:
as §1
Targeted drug delivery to tumor cells through the folate receptor. The efficacy of different doses of conjugates was tested on SCID CB-17 mice bearing s.c. human KB xenografts and was compared with equivalent and higher doses of free methotrexate. […] Six groups of SCID mice with five mice in each group were injected s.c. on one flank with 5×10^6 KB cells in 0.2 mL PBS suspension. The highest total dose of G5-FI-FA-MTX therapeutic used equals 55.0 mg/kg and is equivalent to a 5.0 mg/kg total cumulative dose of free methotrexate (FIG. 29). The therapeutic dose of the conjugate was compared with three cumulative doses of free methotrexate equivalent to 33.3, 21.7, and 5.0 mg/kg accumulated in 10 to 15 injections based on mouse survival. Saline and the conjugate without methotrexate (G5-FI-FA) were used as controls.
The equivalent dose of methotrexate delivered with both targeted conjugates to the surviving mice was higher than the dose of free methotrexate because all of the mice receiving free methotrexate died by day 66 of the trial (FIG. 30). The survival of mice from groups receiving G5-FI-FA-MTX or G5-FA-MTX conjugate indicate that tumor growth based on the end-point volume of 4 cm3 can be delayed by at least 30 days (FIG. 30). This value indicates the antitumor effectiveness of the conjugate because it mimics clinical end-points and requires observation of the mice throughout the progression of the disease. […] The tumor in this mouse was not palpable for the next 20 days up to the 60th day of the trial. […] Thus, in some embodiments, the present invention provides a composition comprising a dendrimer comprising a targeting agent, a therapeutic agent and an imaging agent. In preferred embodiments, the dendrimer is used for delivery, in a target specific manner, of a therapeutic agent (e.g., methotrexate) to tumor cells in vivo.
On the technique in general: A xenograft is tissue or cells of one species grown in another, often human tumour cells in immunodeficient mice.

With `Nc1nc2ncc(CNc3ccc(C(=O)N[C@@H](CCC(=O)O)C(=O)O)cc3)nc2c(=O)[nH]1` [FA, Folic Acid], the “reversal of MTX-induced growth arrest by free FA” value with KB cells (150 nM FA with 150 nM MTX, 24 h, then 6 d, total cell protein) was “almost completely reversed the growth-arrest caused by 150 nM MTX”.
Regarding `CN(Cc1cnc2nc(N)nc(N)c2n1)c1ccc(C(=O)N[C@@H](CCC(=O)O)C(=O)O)cc1` [MTX, Methotrexate], in the series on KB cells (1, 2 or 3 days), the “inhibition of cell growth (XTT assay)” value is listed as “time-dependent cytotoxicity”. Besides, the “growth inhibition of free MTX versus equimolar MTX in conjugate” value in the series with KB cells (below 1 μM) was “higher than with the equimolar concentrations of MTX in the G5-FITC-FA-MTX”. In series [1] (mouse, in vivo), the liver histopathology entry is “advanced liver lesions, collections of inflammatory cells, and periportal inflammation”. Moreover, the “toxicity (body weight)” value in series [1] (total dose equivalent to 5.0 mg/kg free methotrexate) is “neither the total accumulated dose of therapeutic conjugate equivalent to 5.0 mg/kg free methotrexate nor free methotrexate at the same dose were toxic”. Further, the “effect on tumor growth” value is reported as “no effect on tumor growth” in the series on human KB xenografts (cumulative dose equivalent to 5.0 mg/kg methotrexate (G5-FI-FA equimolar dendrimer)); “affecting tumor growth” with human KB xenografts (free methotrexate cumulative 33.3 and 21.7 mg/kg). Besides, the “survivors at termination of the trial” value in the series on human KB xenografts (second 99-day trial) was “no mice surviving”.
